Measurements published in patent US20220177511A1, “SERIES OF HALOGENATED TETRACYCLIC TRITERPENE DERIVATIVES AND THEIR PREPARATION AND APPLICATION” (SHANGHAI KING-X BIOTECH CO., LTD, priority 2019, published 2022).
Values after ≈ are worked out from the molar mass of the structure shown. “Also recorded” adds a separate entry of the source.

Assays:
[1] = Metabolic stability in human liver microsomes; assay type: in vitro ADME; conditions: for Metabolic half-life of human liver microsomes: 5 μM compound, 1 mg/mL microsomes, 37° C.
Description: Preparation of the test sample: Compound 1 (prepared in Example 5), 2 (prepared in Example 4), and 5 (cycloastragenol, purchased from Chengdu Jintaihe Company) were dissolved with an appropriate amount of DMSO to obtain a concentration of 10 mM solution.
1) The compound was diluted with DMSO to 0.5 mM, and diluted to 1/20 with PBS before the experiment.
2) Human liver microsomes and potassium phosphate buffer were added to the EP tube respectively and mixed by gentle shaking.
3) Pre-incubate the EP tube in a metal bath at 37° C. for 5 minutes. 4) Compound 1, 2 or 5 were added and incubated at 37° C.
5) Take 100 μl of sample from the tube at 0, 60, 120, 240, and 360 minutes respectively, and add the sample to the stop tube (containing 100 μl of cooled acetonitrile solution). The mixture was shaken vigorously to terminate the reaction and then placed it in a −30° C. refrigerator until analysis.
6) Centrifuge at 14300 r/min and 4° C. for 10 minutes, aspirate the supernatant and place it in a −30° C. refrigerator until analysis.
Column: Shim-pack XR-ODS II, 2.0×75 mm; mobile phase: mobile phase B: aqueous solution containing 0.2% formic acid; mobile phase A: acetonitrile solution; mobile phase ratio: […]

[2] = Solubility test in water and FaSSIF; assay type: physicochemical; conditions: 37° C., up to 24 hours
[3] = Metabolic stability in rat liver microsomes; assay type: in vitro ADME; conditions: compared with compound 5 (cycloastragenol)

Metabolic half-life of human liver microsomes [1]	Solubility ([2]; FaSSIF (pH 6.5))	Solubility ([2]; Water)	Compound	metabolic stability in rat liver microsomes [3]	metabolic stability in human liver microsomes ([1]; compared with compound 5 (cycloastragenol))
0.308 h	49 µg/mL (≈ 99.9 µM)	8 µg/mL (≈ 16.3 µM)	CC(C)(O)[C@@H]1CC[C@](C)([C@H]2[C@@H](O)C[C@@]3(C)[C@@H]4C[C@H](O)[C@H]5C(C)(C)[C@@H](O)CC[C@@]56C[C@@]46CC[C@]23C)O1 [Compound 5, (2aR,3R,4S,5aS,5bS,7S,7aR,9S,11aR,12aS)-3-((2S,5S)-5-(2-hydroxypropan-2-yl)-2-methyltetrahydrofuran-2-yl)-2a,5a,8,8-tetramethyltetradecahydro-1H,12H-cyclopenta[a]cyclopropa[e]phenanthrene-4,7,9-triol, reference compound]		
3.893 h			(2aR,3R,4S,5aS,5bS,7S,7aR,9R,11aR,12aS)-9-halogen-3-((2R,5S)-5-(2-hydroxypropan-2-yl)-2-methyltetrahydrofuran-2-yl)-2a,5a,8,8-tetramethyltetradecahydro-1H,12H-cyclopenta[a]cyclopropa[e]phenanthrene-4,7-diol [Compound 1]	relatively stable; also recorded: more stable than cycloastragenol	relatively stable; also recorded: more stable than cycloastragenol
